According to patent US11878049B1, “Mitapivat therapy and modulators of cytochrome P450” (Agios Pharmaceuticals, Inc., priority 2019, dated 2024):

Tests used:
Format in all cases: in vitro ADME
CYP2C9 [1] = biological target: T1, CYP2C9 (Homo sapiens, UniProt P11712); experiment: CYP enzyme inhibition
P-gp = P-gp (Homo sapiens, UniProt P08183); experiment: Transporter inhibition
[2] = biological target: T2, breast cancer resistance protein (BCRP) (Homo sapiens, UniProt Q9UNQ0); experiment: Transporter inhibition
T2 sequence (Q9UNQ0 1-655): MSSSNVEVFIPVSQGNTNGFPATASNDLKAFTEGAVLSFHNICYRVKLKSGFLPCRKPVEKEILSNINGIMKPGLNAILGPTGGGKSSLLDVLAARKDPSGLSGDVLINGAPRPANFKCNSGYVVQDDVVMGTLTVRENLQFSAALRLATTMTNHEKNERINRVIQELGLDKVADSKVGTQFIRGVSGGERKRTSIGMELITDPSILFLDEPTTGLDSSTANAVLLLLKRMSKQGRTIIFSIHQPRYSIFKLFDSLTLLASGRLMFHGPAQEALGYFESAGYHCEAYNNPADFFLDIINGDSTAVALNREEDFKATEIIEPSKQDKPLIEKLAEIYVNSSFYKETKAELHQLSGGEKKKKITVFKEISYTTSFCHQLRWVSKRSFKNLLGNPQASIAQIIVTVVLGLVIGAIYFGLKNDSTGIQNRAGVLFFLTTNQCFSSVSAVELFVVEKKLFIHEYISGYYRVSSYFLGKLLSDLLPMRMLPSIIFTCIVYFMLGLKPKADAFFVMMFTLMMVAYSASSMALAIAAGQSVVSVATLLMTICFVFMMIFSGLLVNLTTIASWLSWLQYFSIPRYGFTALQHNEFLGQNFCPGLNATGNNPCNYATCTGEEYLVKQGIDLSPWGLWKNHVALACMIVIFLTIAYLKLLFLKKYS

CYP2C9 [3] = biological target: T1, CYP2C9; experiment: CYP-enzyme phenotyping using human liver microsomes and recombinant CYP enzymes; set-up: CYP-enzyme phenotyping using human liver microsomes and recombinant CYP enzymes; from tissue; host or cells: human liver microsomes
CYP3A4/5 = experiment: as above

T1 sequence (P11712 whole entry): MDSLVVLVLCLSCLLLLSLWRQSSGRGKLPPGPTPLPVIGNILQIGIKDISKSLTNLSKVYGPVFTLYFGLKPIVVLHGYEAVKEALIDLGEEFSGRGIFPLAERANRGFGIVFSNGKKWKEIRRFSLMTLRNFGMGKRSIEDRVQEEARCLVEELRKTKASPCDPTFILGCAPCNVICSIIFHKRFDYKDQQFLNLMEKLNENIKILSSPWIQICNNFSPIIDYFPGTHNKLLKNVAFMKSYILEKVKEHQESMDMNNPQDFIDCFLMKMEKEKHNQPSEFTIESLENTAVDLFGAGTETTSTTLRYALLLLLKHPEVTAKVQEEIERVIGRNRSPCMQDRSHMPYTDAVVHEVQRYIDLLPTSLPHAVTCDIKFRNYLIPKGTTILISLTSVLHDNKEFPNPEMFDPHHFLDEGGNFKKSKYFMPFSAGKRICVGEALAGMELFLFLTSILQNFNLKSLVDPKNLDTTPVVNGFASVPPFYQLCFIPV
P-gp, sequence (P08183 whole entry): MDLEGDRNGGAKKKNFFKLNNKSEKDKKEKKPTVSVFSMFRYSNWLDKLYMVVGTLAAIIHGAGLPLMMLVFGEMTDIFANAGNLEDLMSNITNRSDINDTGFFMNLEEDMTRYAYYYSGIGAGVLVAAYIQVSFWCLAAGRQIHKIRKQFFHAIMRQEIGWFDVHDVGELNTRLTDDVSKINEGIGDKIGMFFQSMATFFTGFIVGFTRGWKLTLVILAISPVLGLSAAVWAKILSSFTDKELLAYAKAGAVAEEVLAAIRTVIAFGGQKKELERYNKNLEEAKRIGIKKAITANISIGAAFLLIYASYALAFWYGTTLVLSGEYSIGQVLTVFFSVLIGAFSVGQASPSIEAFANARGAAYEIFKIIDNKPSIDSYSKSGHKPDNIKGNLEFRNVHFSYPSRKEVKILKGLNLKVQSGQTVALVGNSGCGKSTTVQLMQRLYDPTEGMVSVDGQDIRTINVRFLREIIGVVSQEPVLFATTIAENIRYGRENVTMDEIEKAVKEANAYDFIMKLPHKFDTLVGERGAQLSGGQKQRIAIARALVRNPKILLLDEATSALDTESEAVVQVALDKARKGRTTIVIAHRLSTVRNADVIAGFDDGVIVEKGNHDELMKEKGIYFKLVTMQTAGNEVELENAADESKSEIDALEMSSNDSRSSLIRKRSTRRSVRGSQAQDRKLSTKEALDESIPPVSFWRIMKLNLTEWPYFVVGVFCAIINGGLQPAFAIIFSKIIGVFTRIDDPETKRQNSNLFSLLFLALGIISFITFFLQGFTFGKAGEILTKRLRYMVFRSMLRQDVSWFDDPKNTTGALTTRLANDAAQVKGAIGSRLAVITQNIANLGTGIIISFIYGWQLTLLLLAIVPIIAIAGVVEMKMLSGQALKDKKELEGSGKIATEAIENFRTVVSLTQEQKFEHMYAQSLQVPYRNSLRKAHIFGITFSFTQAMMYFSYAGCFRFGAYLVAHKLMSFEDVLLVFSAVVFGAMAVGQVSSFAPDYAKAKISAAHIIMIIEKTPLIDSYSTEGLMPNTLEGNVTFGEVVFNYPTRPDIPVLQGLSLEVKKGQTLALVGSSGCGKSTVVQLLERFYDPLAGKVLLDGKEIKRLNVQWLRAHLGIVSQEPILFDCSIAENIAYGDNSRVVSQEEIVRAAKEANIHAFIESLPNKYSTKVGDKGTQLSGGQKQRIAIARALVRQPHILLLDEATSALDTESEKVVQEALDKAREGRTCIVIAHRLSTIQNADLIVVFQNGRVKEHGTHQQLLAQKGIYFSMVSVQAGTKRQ

| SMILES | Inhibition of CYP2C9 (CYP2C9 [1]) | Inhibitor for P-gp (P-gp) | Inhibitor for BCRP [2] | Contribution of CYP2C9 to metabolism (CYP2C9 [3]) | Share of metabolism by CYP3A4/5 (primarily metabolized by) (CYP3A4/5) [%] |
| --- | --- | --- | --- | --- | --- |
| O=C(c1ccc(NS(=O)(=O)c2cccc3cccnc23)cc1)N1CCNCC1 [Metabolite] | mild inhibitor | not an inhibitor | not an inhibitor | – | – |
| O=C(c1ccc(NS(=O)(=O)c2cccc3cccnc23)cc1)N1CCN(CC2CC2)CC1 [Mitapivat, N-(4-(4-(cyclopropylmethyl)piperazine-1-carbonyl)phenyl)quinoline-8-sulfonamide] | – | – | – | minor contributions | > 90 |
